Marks after values point to notes of the source that are not given here.
What was measured:
plasmin/α2-antiplasmin = experiment: Plasmin activity by fibrinogen zymography of plasma, mouse cerebral infarction model; assay type: in vivo; settings: 10 mg/kg 1 hour after ischemia, mean ± SE, n=6
Experimental: The quantity of plasmin/α2-antiplasmin in plasma was measured by a fibrinogen zymography method for evaluating the plasmin activity, when a triprenyl phenol compound was administered to a mouse cerebral infarction model. As triprenyl phenol compounds, SMTP-7, SMTP-6, SMTP-22, SMTP-25, SMTP-43, and SMTP-44D were used.
The triprenyl phenol compounds were prepared same as in Example 2 and Example 5. The administration of 10 mg/kg of a triprenyl phenol compound was initiated 1 hour after the initiation of ischemia. The administration method was same as Example 3. Six mice were used for each condition.
A blood sample was taken according to the following method at 3 time points, namely after the completion of the administration 0 hour (immediately after the completion), 1 hour, and 3 hours. Under anesthesia with 1 to 1.5% isoflurane, the […] and 90 μL of blood was withdrawn from the abdominal vena cava into a syringe containing 10 μL of sodium citrate (3.8%) (sodium citrate:blood=1:9, final concentration of sodium citrate 0.38%).
After collection the blood was centrifuged (5000 rpm, 15 min, 4° C.) to separate plasma. A part of the plasma was mixed with equal quantity of a sample buffer (125 mM Tris-HCl (pH 6.8), 4% (w/v) SDS, 0.04% (w/v) bromophenol blue, 20% (w/v) sucrose), which was then divided into small fractions, and cryopreserved.
A part of the plasma was reserved and diluted 300-fold with 0.1 N NaOH and the protein content was determined by the Bradford method in order to even out the protein mass to be applied to an electrophoresis gel.
As the standard sample, a sample was prepared by reacting 10 μL of 120 nM plasmin (by SIGMA) and 10 μL of 600 nM α2-antiplasmin (by Wako Pure Chemical Industries, Ltd.) at 37° C. for 30 min, and mixing the same with 20 μL of the sample buffer.
An electrophoresis gel was prepared by overlaying a stacking gel on a 7.5% running gel containing 2 mg/mL fibrinogen (by SIGMA). Based on the determined protein mass, 3 to 15 μL of the sample was applied, so that the equal amount of protein was applied.
After electrophoresis at 10 mA/sheet, for 3 hours the stacking gel was removed and rinsed for 30 min twice with about 100 mL/gel of a rinse liquid (2.5% Triton X-100). After rinsing, incubation was carried out at 37° C. for 24 to 60 hours under gentle shaking with about 100 mL/sheet of an incubation buffer (0.1 M glycine-50 mM Tris-HCl, pH 8.3 at 37° C.).
Thereafter the gel was stained by a stain solution (0.075% CBB 8250, 22.5% methanol, 2.25% sulfosalicylic acid dihydrate, 7.5% trichloroacetic acid) at room temperature for 15 to 30 min with gentle shaking. Removing the stain solution, the gel was decolored by a decoloring solution (methanol:acetic acid:water=1:1:6), which was replaced with water at an appropriate time point according to appearance of bands observed.
The image on the gel was read in by an imaging analyzer (Printgraph (AE-6933FXCF), by ATTO) and the band intensity was evaluated. The results are expressed as a ratio to the value of the control group at 0 hour after the completion of the administration (immediately after the completion).

[1] = test system: crab-eating monkey cerebral infarction model; experiment: Crab-eating monkey cerebral infarction model (thrombotic middle cerebral artery occlusion); assay type: in vivo; settings: mean ± S.D.
Experimental: A reducing effect of a cerebral infarction size and an improving effect of a neurological symptom of SMTP-7 in a crab-eating monkey cerebral infarction model were studied according to the following testing method.
SMTP-7 administration group: 10 mg/kg, 2 to 3 year old male crab-eating monkeys, 6 monkeys
Administration method of test substance: The administration volume was set at 10 mL/kg. A Surflo indwelling needle was indwelled in the left saphenous vein, 1 mg/kg (1 mL/kg) was administered 1 hour after ischemia as a bolus over 5 sec, then 9 mg/kg (9 mL/kg) was administered continuously over 30 min using a syringe pump.
Preparation of administration liquid: SMTP-7 was dissolved in a physiological saline solution at 1 mg/mL. More particularly, to 70.0 mg of a SMTP-7 sodium salt (containing 63.1 mg of SMTP-7) was added 63.1 mL of a physiological saline solution, and the liquid was stirred by a magnetic stirrer under heating in a hot-water bath (37° C.) for dissolution. An ultrasonic treatment was conducted according to need. After dissolution the liquid was subjected to filter sterilization by a sterile filter (0.22 μm, made of cellulose acetate). The administration liquid was prepared before using. After the preparation it was kept in a 37° C. hot-water bath until immediately before the use, and the administration was finished within 4 hours after the preparation.
The treatment of cerebral infarction was conducted according to the standard experimental protocol (SPHPR710-15A). More particularly, after extirpating the right eyeball, the eyeground bone outside the optic nerve exit was removed by a dental drill to expose the dura mater. The dura mater was carefully detached to identify the middle cerebral artery. The origin part of the middle cerebral artery was separated from the arachnoid mater and a light irradiation probe for generating a thrombus was fixed on the middle cerebral artery. At the distal end of the probe a probe of a pulse Doppler blood flowmeter (Crystal Bio, PDV-20) was placed. An intravenous administration of rose bengal (Wako Pure Chemical Industries, Ltd.) (20 mg/kg) over 6 min was initiated and an irradiation with green light with the wavelength of 540 nm (1.40 million LUX) was conducted for 20 min to block the middle cerebral artery by a thrombus. The initiation time of the light irradiation and the administration of the rose Bengal was defined as the initiation time of ischemia. The middle cerebral artery blood flow was measured by the pulse Doppler blood flowmeter continuously for 2 hours from the initiation time of the light irradiation and then the incision was closed. A series of procedures were carried out completely under an operating microscope to minimize intraoperative hemorrhage to the utmost. Further, the rectal temperature of an animal under operation was monitored, and the animal was kept warmed by a heating pad, so as to maintain the body temperature of the animal in a physiological range (37.0 to 38.5° C.).
Neurological symptoms as described below were observed 24 hours after ischemia according to J. Neurosci. Meth., 2001; 105: 45-53.
After the neurological symptom observation 24 hours after the operation, a euthanasia treatment was conducted by means of a megadose of pentobarbital and the brain was extirpated. Six mm-thick coronal slices were prepared and photographed for quantitative determination of a hemorrhagic infarction. Thereafter, the infarction area was stained in a 2% TTC solution and photographs were taken for quantitative determination of an infarction size. For evaluations of the hemorrhagic infarction and the infarction area, the occipital lobe side of each slice was used.
Photographs of an individual were converted to TIF images and hemorrhagic infarction areas and the respective infarction areas were marked by Photoshop 7.0 (Adobe), which sizes were then measured by Scion Image 0.4.0.3 (Scion Corporation). […]

[2] = plasma 0 hr after completion of administration
[3] = plasma 1 hr after completion of administration
[4] = plasma 3 hr after completion of administration
[5] = 10 mg/kg i.v. 1 hour after ischemia, 24 hours after ischemia

## CC(C)=CCC/C(C)=C/CCC1(C)Oc2c(c(O)cc3c2CN(C(Cc2c[nH]c4ccccc24)C(=O)O)C3=O)CC1O (centres unmarked) [SMTP-6]
plasmin/α2-antiplasmin; [2]
  plasmin activity (plasmin/α2-antiplasmin band intensity), ratio to control group at 0 hour: 1.08 ± 0.12
plasmin/α2-antiplasmin; [3]
  plasmin activity (plasmin/α2-antiplasmin band intensity), ratio to control group at 0 hour: 1.17 ± 0.14
plasmin/α2-antiplasmin; [4]
  plasmin activity (plasmin/α2-antiplasmin band intensity), ratio to control group at 0 hour: 1.68 ± 0.10

## CC(C)=CCC/C(C)=C/CC[C@@]1(C)Oc2c(c(O)cc3c2CN(CCC[C@@H](C(=O)O)N2Cc4c(cc(O)c5c4O[C@](C)(CC/C=C(\C)CCC=C(C)C)[C@@H](O)C5)C2=O)C3=O)C[C@@H]1O [SMTP-7]
[1]; 0~60 min after ischemia (before administration), 10 mg/kg i.v.
  Occlusion Time: 45.5 ± 3.8 min
[1]; [5]
  Hemorrhagic infarction area size: 14.1 ± 7.4 (P < 0.05) mm^2
  cerebral infarction size: Basal ganglion: 1419.7 ± 633.8* mm^3
  cerebral infarction size: Cerebral cortex: 237.8 ± 198.8 mm^3
  cerebral infarction size: Total: 1745.1 ± 749.5* mm^3
  cerebral infarction size: White matter: 87.7 ± 71.8 mm^3
  neurological symptom score: Consciousness: 7.7 ± 2.0
  neurological symptom score: Motor system: 10.7 ± 2.7
  neurological symptom score: Sensory system: 7.5 ± 1.6
  neurological symptom score: Skeletal muscle coordination system: 5.3 ± 2.4
  neurological symptom score: Total: 31.2 ± 7.9
[1]; 10 mg/kg i.v. 1 hour after ischemia, measured for 2 hours, 6 monkeys
  Total Occlusion Time: 86.8 ± 18.8 min
[1]; 10 mg/kg i.v. 1 hour after ischemia, middle cerebral artery blood flow, 6 monkeys
  Time to Occlusion: 6.9 ± 2.5 min
[1]; 60~120 min after ischemia, 10 mg/kg i.v. 1 hour after ischemia
  Occlusion Time: 41.3 ± 18.9 min
plasmin/α2-antiplasmin; [2]
  plasmin activity (plasmin/α2-antiplasmin band intensity), ratio to control group at 0 hour: 1.49 ± 0.13
plasmin/α2-antiplasmin; [3]
  plasmin activity (plasmin/α2-antiplasmin band intensity), ratio to control group at 0 hour: 3.23 ± 0.47
plasmin/α2-antiplasmin; [4]
  plasmin activity (plasmin/α2-antiplasmin band intensity), ratio to control group at 0 hour: 3.27 ± 0.67
